Patent US20230107642A1 (Erasca, Inc., priority 2020, published 2023)

Biological target: T1, K-Ras G12C (Homo sapiens, UniProt P01116, G12C)
T1 construct: This protein contained 188 amino acids in total, including an N-terminal 6-Histidine tag; made in house; host or cells: E. coli BL21
Assay: CAF assay (% CAF; method in Example 7, not in this part)
Format: binding
Settings: 10 uM compound, 1 h incubation

Row | Structure (SMILES) | % CAF @ 10 uM, 1h [%]
1 | C=CC(=O)N1C[C@H](C)N(c2nc(=O)n3c4c(c(-c5ccc(F)cc5F)c(C(F)(F)F)cc24)SC[C@@H]3COC)C[C@H]1C [Example 493, (3S)-7-((2S,5R)-4-acryloyl-2,5-dimethylpiperazin-1-yl)-10-(2,4-difluorophenyl)-3-(methoxymethyl)-9-(trifluoromethyl)-2H-[1,4]thiazino[2,3,4-ij]quinazolin-5(3H)-one] | 78.6
2 | C=CC(=O)N1C[C@H](C)N(c2nc(=O)n3c4c(c(-c5ccc(F)cc5F)c(Cl)cc24)SC[C@@H]3COC)C[C@H]1C [Example 494, (3S)-7-((2S,5R)-4-acryloyl-2,5-dimethylpiperazin-1-yl)-9-chloro-10-(2,4-difluorophenyl)-3-(methoxymethyl)-2H-[1,4]thiazino[2,3,4-ij]quinazolin-5(3H)-one] | 68.7
3 | C=CC(=O)N1C[C@H](C)N(c2nc(=O)n3c4c(c(-c5cc(Cl)c(F)cc5F)c(Cl)cc24)SC[C@@H]3CN2CCN(CC(F)F)CC2)C[C@H]1C [Example 495, (3S)-7-((2S,5R)-4-acryloyl-2,5-dimethylpiperazin-1-yl)-9-chloro-10-(5-chloro-2,4-difluorophenyl)-3-((4-(2,2-difluoroethyl)piperazin-1-yl)methyl)-2H-[1,4]thiazino[2,3,4-ij]quinazolin-5(3H)-one] | 50.8
4 | C=CC(=O)N1C[C@H](C)N(c2nc(=O)n3c4c(c(-c5cc(Cl)c(F)cc5F)c(Cl)cc24)SC[C@@H]3COC)C[C@H]1C [Example 496, (3S)-7-((2S,5R)-4-acryloyl-2,5-dimethylpiperazin-1-yl)-9-chloro-10-(5-chloro-2,4-difluorophenyl)-3-(methoxymethyl)-2H-[1,4]thiazino[2,3,4-ij]quinazolin-5(3H)-one] | 65.3
5 | C=CC(=O)N1C[C@H](C)N(c2nc(=O)n3c4c(c(-c5ccc(F)cc5)c(C(F)(F)F)cc24)SC[C@@H]3COC)C[C@H]1C [Example 497, (S)-7-((2S,5R)-4-acryloyl-2,5-dimethylpiperazin-1-yl)-10-(4-fluorophenyl)-3-(methoxymethyl)-9-(trifluoromethyl)-2H-[1,4]thiazino[2,3,4-ij]quinazolin-5(3H)-one] | 85.1
6 | C=CC(=O)N1C[C@H](C)N(c2nc(=O)n3c4c(c(-c5ccc(F)cc5F)c(C(F)(F)F)cc24)SC[C@@H]3COCCOC)C[C@H]1C [Example 498, (3S)-7-((2S,5R)-4-acryloyl-2,5-dimethylpiperazin-1-yl)-10-(2,4-difluorophenyl)-3-((2-methoxyethoxy)methyl)-9-(trifluoromethyl)-2H-[1,4]thiazino[2,3,4-ij]quinazolin-5(3H)-one] | 81.2
7 | C=CC(=O)N1C[C@H](C)N(c2nc(=O)n3c4c(c(-c5cc(Cl)c(F)cc5F)c(Cl)cc24)SC[C@@H]3CN2CCN(C3CC3)CC2)C[C@H]1C [Example 499, (3S)-7-((2S,5R)-4-acryloyl-2,5-dimethylpiperazin-1-yl)-9-chloro-10-(5-chloro-2,4-difluorophenyl)-3-((4-cyclopropylpiperazin-1-yl)methyl)-2H-[1,4]thiazino[2,3,4-ij]quinazolin-5(3H)-one] | 28
8 | C=CC(=O)N1C[C@H](C)N(c2nc(=O)n3c4c(c(-c5cc(Cl)c(F)cc5F)c(Cl)cc24)SC[C@@H]3CN2C[C@@H]3C[C@H]2CO3)C[C@H]1C [Example 500, (3S)-3-((1S,4S)-2-oxa-5-azabicyclo[2.2.1]heptan-5-ylmethyl)-7-((2S,5R)-4-acryloyl-2,5-dimethylpiperazin-1-yl)-9-chloro-10-(5-chloro-2,4-difluorophenyl)-2H-[1,4]thiazino[2,3,4-ij]quinazolin-5(3H)-one] | 50.6
9 | C=CC(=O)N1C[C@H](C)N(c2nc(=O)n3c4c(c(-c5ccc(F)cc5F)c(Cl)cc24)SC[C@@H]3COCCOC)C[C@H]1C [Example 501, (3S)-7-((2S,5R)-4-acryloyl-2,5-dimethylpiperazin-1-yl)-9-chloro-10-(2,4-difluorophenyl)-3-((2-methoxyethoxy)methyl)-2H-[1,4]thiazino[2,3,4-ij]quinazolin-5(3H)-one] | 66.8
10 | C=CC(=O)N1C[C@H](C)N(c2nc(=O)n3c4c(c(-c5cc(Cl)c(F)cc5F)c(Cl)cc24)SC[C@@H]3COCCOC)C[C@H]1C [Example 502, (3S)-7-((2S,5R)-4-acryloyl-2,5-dimethylpiperazin-1-yl)-9-chloro-10-(5-chloro-2,4-difluorophenyl)-3-((2-methoxyethoxy)methyl)-2H-[1,4]thiazino[2,3,4-ij]quinazolin-5(3H)-one] | 65.1
11 | C=CC(=O)N1[C@H](C)CN(c2nc(=O)n3c4c(c(-c5ccc(F)cc5F)c(C(F)(F)F)cc24)SC[C@@H](OC)C3)C[C@@H]1C [Example 503, (3S)-8-((3S,5R)-4-acryloyl-3,5-dimethylpiperazin-1-yl)-11-(2,4-difluorophenyl)-3-methoxy-10-(trifluoromethyl)-3,4-dihydro-2H,6H-[1,4]thiazepino[2,3,4-ij]quinazolin-6-one] | 96
12 | C=CC(=O)N1CCN(c2nc(=O)n3c4c(c(-c5ccc(F)cc5F)c(Cl)cc24)SC[C@@H](OC)C3)CC1 [Example 504, (3S)-8-(4-acryloylpiperazin-1-yl)-10-chloro-11-(2,4-difluorophenyl)-3-methoxy-3,4-dihydro-2H,6H-[1,4]thiazepino[2,3,4-ij]quinazolin-6-one] | 96
13 | C=CC(=O)N1[C@H](C)CN(c2nc(=O)n3c4c(c(-c5ccc(F)cc5F)c(Cl)cc24)SC[C@@H](OC)C3)C[C@@H]1C [Example 505, (3S)-8-((3S,5R)-4-acryloyl-3,5-dimethylpiperazin-1-yl)-10-chloro-11-(2,4-difluorophenyl)-3-methoxy-3,4-dihydro-2H,6H-[1,4]thiazepino[2,3,4-ij]quinazolin-6-one] | 95
14 | C=CC(=O)N1[C@H](C)CN(c2nc(=O)n3c4c(c(-c5cc(F)c(F)cc5F)c(Cl)cc24)SC[C@@H]3COC)C[C@@H]1C [Example 506, (3S)-7-((3S,5R)-4-acryloyl-3,5-dimethylpiperazin-1-yl)-9-chloro-3-(methoxymethyl)-10-(2,4,5-trif1uorophenyl)-2,3-dihydro-5H-[1,4]thiazino[2,3,4-ij]quinazolin-5-one] | 17.5
15 | C=CC(=O)N1CCN(c2nc(=O)n3c4c(c(-c5ccc(F)cc5F)c(C(F)(F)F)cc24)S[C@H](COC)C3)[C@@H](C)C1 [Example 507, (2S)-7-((S)-4-acryloyl-2-methylpiperazin-1-yl)-10-(2,4-difluorophenyl)-2-(methoxymethyl)-9-(trifluoromethyl)-2,3-dihydro-5H-[1,4]thiazino[2,3,4-ij]quinazolin-5-one] | 71
16 | C=CC(=O)N1C[C@H](C)N(c2nc(=O)n3c4c(c(-c5ccc(F)cc5)c(C(F)(F)F)cc24)SC[C@@H]3COCCOC)C[C@H]1C [Example 512, (S)-7-((2S,5R)-4-acryloyl-2,5-dimethylpiperazin-1-yl)-10-(4-fluorophenyl)-3-((2-methoxyethoxy)methyl)-9-(trifluoromethyl)-2H-[1,4]thiazino[2,3,4-ij]quinazolin-5(3H)-one] | 66.1
17 | C=CC(=O)N1[C@H](C)CN(c2nc(=O)n3c4c(c(-c5ccc(F)cc5F)c(C(F)(F)F)cc24)SC[C@@H]3COC)C[C@@H]1C [Example 513, (3S)-7-((3S,5R)-4-acryloyl-3,5-dimethylpiperazin-1-yl)-10-(2,4-difluorophenyl)-3-(methoxymethyl)-9-(trifluoromethyl)-2H-[1,4]thiazino[2,3,4-ij]quinazolin-5(3H)-one] | 96.2
18 | C=CC(=O)N1CCN(c2nc(=O)n3c4c(c(-c5ccc(F)cc5F)c(C(F)(F)F)cc24)SC[C@@H]3COC)CC1 [Example 514, (3S)-7-(4-acryloylpiperazin-1-yl)-10-(2,4-difluorophenyl)-3-(methoxymethyl)-9-(trifluoromethyl)-2H-[1,4]thiazino[2,3,4-ij]quinazolin-5(3H)-one] | 96.1
19 | C=CC(=O)N1C[C@H](C)N(c2nc(=O)n3c4c(c(-c5ccc(F)cc5)c(Cl)cc24)SC[C@@H]3CN2CCN(CC(F)F)CC2)C[C@H]1C [Example 515, (S)-7-((2S,5R)-4-acryloyl-2,5-dimethylpiperazin-1-yl)-9-chloro-3-((4-(2,2-difluoroethyl)piperazin-1-yl)methyl)-10-(4-fluorophenyl)-2H-[1,4]thiazino[2,3,4-ij]quinazolin-5(3H)-one] | 55.1
20 | C=CC(=O)N1CCN(c2nc(=O)n3c4c(c(-c5ccc(F)cc5)c(C(F)(F)F)cc24)SC[C@@H]3COCOC)[C@@H](C)C1 [Example 516, (S)-7-((S)-4-acryloyl-2-methylpiperazin-1-yl)-10-(4-fluorophenyl)-3-((methoxymethoxy)methyl)-9-(trifluoromethyl)-2H-[1,4]thiazino[2,3,4-ij]quinazolin-5(3H)-one] | 74.4
21 | C=CC(=O)N1C[C@H](C)N(c2nc(=O)n3c4c(c(-c5ccc(F)cc5)c(Cl)cc24)SC[C@@H]3CN2CCN(C3CC3)CC2)C[C@H]1C [Example 517, (S)-7-((2S,5R)-4-acryloyl-2,5-dimethylpiperazin-1-yl)-9-chloro-3-((4-cyclopropylpiperazin-1-yl)methyl)-10-(4-fluorophenyl)-2H-[1,4]thiazino[2,3,4-ij]quinazolin-5(3H)-one] | 59.5
22 | C=CC(=O)N1C[C@H](C)N(c2nc(=O)n3c4c(c(-c5ccc(F)cc5F)c(Cl)cc24)SC[C@@H]3CN2C[C@@H]3C[C@H]2CO3)C[C@H]1C [Example 519, (3S)-3-((1S,4S)-2-oxa-5-azabicyclo[2.2.1]heptan-5-ylmethyl)-7-((2S,5R)-4-acryloyl-2,5-dimethylpiperazin-1-yl)-9-chloro-10-(2,4-difluorophenyl)-2H-[1,4]thiazino[2,3,4-ij]quinazolin-5(3H)-one] | 61.3
